According to patent US10752603B2, “Purification of oxydiphthalic anhydrides” (SABIC Global Technologies, B.V., priority 2018, dated 2020):
“Also recorded” adds a separate entry of the source.

Experiment: Color stability of ODPA after heat treatment (220 to 225° C., about 8 hours)
Format: physicochemical
Conditions: 220 to 225° C. for about 8 hours, visual observation
Method: The color stability of the ODPA after subjecting the ODPA to heat treatment was also examined. The heat stability testing was performed on various ODPA samples as described in Table 7. The samples were tested using a 10 wt % solution of each sample in DMF and APHA values were recorded using a Macbeth colorimeter Each sample was heat-treated by exposing the sample to a temperature of 220 to 225° C. for about 8 hours. The samples were monitored for color changes during the heat exposure duration. Visual observations are recorded in Table 7, as well as the measured APHA color values.

## O=C1OC(=O)c2cc(Oc3ccc4c(c3)C(=O)OC4=O)ccc21 [Example 74, reference compound]
  Qualitative color observations after exposure to heat: no detectable color change; also recorded: No change observed
